In US20050069907A1, “Methods for using double-mutant RNA polymerases with reduced discrimination between non-canonical and canonical nucleoside triphosphates” (priority 2002, published 2005):

Key:
Bgl II-cut pPK5 = assay: Run-off transcription with 2′-OMe- or 2′-azido-NTPs on Bgl II-cut pPK5; format: biochemical
Experimental: (§1) RNAPs were prepared as described (Brieba, L G, and Sousa, R. Biochemistry, 39: 919-923, 2000). Transcription reactions were carried out for 30 min. at room temperature in 40 mM Tris-Cl, pH 8.0, 6 mM MgCl2, 10 mM NaCl, 2 mM spermidine, with templates at 10^−7 M and RNAPs at 2×10^−7 M. All NTPs were used at 0.5 mM, and transcripts were labeled by inclusion of 1% v/v 800 Ci/mM […] in the reaction. Modified NTPs were from Trilink Biotechnologies. Reactions were stopped by addition of an equal volume of 90% formamide, 50 mM EDTA, 0.01% xylene cyanol, resolved by electrophoresis in 20% acrylamide, 1% bis-acrylamide, 1×TBE gels, and visualized on a Molecular Dynamics Phosphorimager.
The ability of the wild-type, Y639F and Y639F/H784A mutants to utilize 2′-OMe-UTP and 2′-OMe-CTP, and 2′-azido-UTP and 2′-azido-CTP in RNA synthesis was tested. On a Bgl II-cut pPK5 (Mentesanas, P. E., et al., “Characterization of Bacteriophage T7 RNA Polymerase Elongation Complexes,” J. Mol. Biol. 302:1049-1062, 2000) template in which CTP and UTP are first incorporated at +14 and +15, respectively, the wild-type enzyme can synthesize 34 nucleotide (nt) run-off transcripts in reactions in which UTP is replaced with 2′-OMe-UTP (FIG. 2a, lane 2) or in reactions in which CTP is replaced with 2′-OMe-CTP (FIG. 2a, lane 3). Relative to the reaction with 4 NTPs (FIG. 2a, lane 1), yields of run-off transcripts are reduced 6-fold and 21-fold in the 2′-OMe-UTP and 2′-OMe-CTP reactions, respectively. When both UTP and CTP are replaced with the corresponding 2′-OMe-NTPs, run-off transcription with the wild-type enzyme is undetectable (FIG. 2a, lane 4). Terminated transcripts are seen in these reactions at positions where 2′-OMe-UMP or 2′-OMe-CMP are incorporated (FIG. 2a, lanes 2-4). The Y639F mutation enhances utilization of the 2′-OMe-NTPs: relative to reactions with 4 NTPs (FIG. 2a, lane 5) runoff transcription with Y639F is reduced, respectively: 2-fold, 8-fold, and 55-fold in reactions with 2′-OMe-UTP, 2′-OMe-CTP, or both (FIG. 2a, lanes 6-8). With the Y639F/H784A double mutant the reduction in run-off transcript synthesis is <15% in reactions with 2′-OMe-UTP (FIG. 2a, lane 10), and only 3-fold and 6-fold in reactions with, respectively, 2′-OMe-CTP or both 2′-OMe-UTP and 2′-OMe-CTP (FIG. 2a, lanes 11, 12).
Identical experiments were carried out with 2′-azido-UTP or 2′-azido-CTP replacing UTP or CTP, respectively (FIG. 2b). With the wild-type enzyme, run-off transcription was reduced 15- and 50-fold in reactions with 2′-azido-UTP or 2′-azido-CTP, respectively (FIG. 2b; lanes 2, 3), and was undetectable in reactions with both 2′-azido-UTP and 2′-azido-CTP (FIG. 2b; lane 4). With Y639F, use of 2′-azido-UTP or 2′-azido-CTP reduced run-off transcription by 70% (FIG. 2b; lanes 6, 7) compared to reactions with 4 NTPs (FIG. 2b; lane 5), while use of both 2′-azido-UTP and 2′-azido-CTP reduced runoff transcription by 11-fold (FIG. 2b, lane 8). With Y639F/H784A use of a single azido-modified NTP reduced run-off transcription by only 40% (FIG. 2b; lanes 10, 11), while use of two 2′-azido-NTPs reduced it by 3-fold (FIG. 2b; lane 12).

HindIII-cut pT75 = assay: Run-off transcription with 2′-OMe- or 2′-azido-NTPs on HindIII-cut pT75; format: biochemical; details: for Reduction of run-off transcript synthesis: 2′-OMe-UTP; for Reduction of run-off transcript yields relative to 4 NTPs: 2′-azido-UTP
Experimental: as §1
With the pPK5 template, UMP and CMP are not incorporated into the first 9 nt of RNA. Incorporation of non-canonical NMPs during synthesis of the first 9 nt of RNA is expected to cause greater reductions in run-off transcript synthesis because the RNA is readily released from the transcription complex during this initial phase of transcription. Therefore, if incorporation of a non-canonical NMP is slow, the RNA will usually dissociate before the NMP is incorporated. […] To see whether NMPs with bulky 2′-substituents could be incorporated during the initial phase of transcription a Hind-III linearized pT75 (Tabor, S. and Richardson, C. C., “A bacteriophage T7 RNA polymerase/promoter system for controlled exclusive expression of specific genes,” Proc. Natl. Acad. Sci. USA 82:1074-1078, 1985) was used. On this template, UMP is first incorporated at +14 while CMP is incorporated at +6 and +7. In reactions with 2′-OMe-UTP run-off transcript synthesis is reduced 11-fold, 5-fold, and <2-fold with the wild-type, and the Y639F, and Y639F/H784A mutants, respectively (FIG. 2c; lanes 2, 6, 10). However, in reactions with 2′-OMe-CTP run-off transcription is undetectable with the wild-type or Y639F enzymes (FIG. 2c; lanes 3, 4, 7, 8), and is reduced ˜700-fold with Y639F/H784A (FIG. 2c; lanes 11, 12).
Run-off transcript yields in reactions with HindIII-cut pT75 and 2′-azido-UTP are reduced 18-, 8.5-, and <2-fold with wild-type and Y639F and Y639F/H784 mutants, respectively (FIG. 2d; lanes 2, 6, 10), relative to reactions with 4 NTPs (FIG. 2d; lanes 1, 5, 9). In reactions with 2′-azido-CTP, or both 2′-azido-CTP and 2′-azido-UTP, run-off transcription is undetectable with the wild-type enzyme (FIG. 2d; lanes 3, 4), is reduced 65-fold with Y639F (FIG. 2d; lanes 7, 8), but is reduced only 7-fold with Y639F/H784A (FIG. 2d; lanes 11, 12).

[1] = both 2′-azido-UTP and 2′-azido-CTP
[2] = 2′-azido-CTP, or both 2′-azido-CTP and 2′-azido-UTP

Substance	Reduction of run-off transcript yield relative to 4 NTPs (Bgl II-cut pPK5; 2′-OMe-CTP replacing CTP) [fold]	Reduction of run-off transcript yield relative to 4 NTPs (Bgl II-cut pPK5; 2′-OMe-UTP replacing UTP) [fold]	Reduction of run-off transcription (Bgl II-cut pPK5; 2′-azido-CTP replacing CTP) [fold]	Reduction of run-off transcription (Bgl II-cut pPK5; 2′-azido-UTP replacing UTP) [fold]	Reduction of run-off transcript yield relative to 4 NTPs (Bgl II-cut pPK5; both 2′-OMe-UTP and 2′-OMe-CTP)	Reduction of run-off transcription (Bgl II-cut pPK5; [1])	Reduction of run-off transcription (HindIII-cut pT75; 2′-OMe-CTP)	Reduction of run-off transcript synthesis (HindIII-cut pT75) [fold]	Reduction of run-off transcription (HindIII-cut pT75; [2])	Reduction of run-off transcript yields relative to 4 NTPs (HindIII-cut pT75) [fold]	Reduction of run-off transcription (Bgl II-cut pPK5; single azido-modified NTP (2′-azido-UTP or 2′-azido-CTP)) [%]
W.T.: wild-type T7 RNA polymerase [reference compound]	21	6	50	15	undetectable	undetectable	undetectable	11	undetectable	18	
Y639F: T7 RNAP with wild-type tyrosine at position 639 substituted by phenylalanine	8	2			55 fold	11 fold	undetectable	5	65 fold	8.5	70
